Test results published in patent US20130210633A1, “METHOD FOR REDUCING WATER STRESS IN PLANTS” (SUMITOMO CHEMICAL COMPANY, LIMITED, priority 2010, published 2013).
Structures can show the parent of a compound that is named as a salt.

Test system: rice (cultivar: Nipponbare)
Test: Evaluation test for reduction of drought stress by rice seed treatment (plant weight)
Type: in vivo
Conditions: with drought stress conditions; for Ratio to non-treated group: fresh weight of above-ground part; for Fresh weight of the above-ground part: seed treatment, average of 3 repetitions
Method: Evaluation Test for Reduction of Drought Stress by Rice Seed Treatment (Plant Weight) A Blank slurry solution containing 5% (V/V) color coat red (Becker Underwood, Inc.), 5% (V/V) CF-Clear (Becker Underwood, Inc.) and 0.4% Maxim XL (Syngenta) was prepared. A sodium salt of the compound “A” was dissolved in the Blank slurry to obtain a slurry solution containing the sodium salt of the compound “A” in a concentration of 333 to 10,000 ppm. In a 50-ml centrifuge tube made of a plastic, 300 μl of the above slurry solution was added to 10 g of rice seeds (cultivar: Nipponbare), followed by stirring for 3 to 5 minutes and further drying of the seeds. As a control, seeds treated by using the Blank slurry in place of the above slurry solution were used as seeds for a non-treated group. On wells of a 406-well plug plate, a filter paper was placed and rice seeds subjected to the above seed treatment were sown on the filter paper. Using a two-fold diluted Kimura B water culture solution (Plant Science 119: 39-47 (1996)), cultivation was performed for 14 days under the conditions of a temperature of 28° C./23° C. (day/night), an illuminance of 8,500 1× and a day length of 12 hours to obtain test plants. Test plants (each 5 seedlings) were placed in an empty 35 ml flat-bottomed test tube ([…]/manufactured by Sarstedt) and then left to stand for 2 days without being capped (this was used as a test group with the drought stress conditions). As a test group without the drought stress conditions, the test plants (each 5 seedlings) were placed in a centrifuge tube filled with 10 ml of a two-fold diluted Kimura B water culture solution, and then left to stand for 2 days without being capped. After that, the plants (each 5 seedlings) were transplanted to a plastic pot (N-71-130G, manufactured by TOKAN KOGYO CO., LTD.) filled with the field soil which had been subjected to a sterilization treatment and then cultivated for 14 days under the conditions of a temperature of 28° C./23° C. (day/night), an illuminance of 8,500 1× and a day length of 12 hours while performing bottom-surface irrigation. After the drought stress treatment, the fresh weight of the above-ground part of the five individuals of test plants in each test group was collectively measured and an average of 3 repetitions of each test group was determined. As a result, the fresh weight of the above-ground part of the test group in the present invention was apparently large as compared with the control and drought stress was reduced.

For `O=C(O)CCC(=O)NCCc1ccccc1` [Compound A, Na salt, 4-oxo-4-(2-phenylethyl)aminobutyric acid], the “Ratio to non-treated group” value (0.01 mg/g of seeds) was 105%, the “Ratio to non-treated group” value (0.1 mg/g of seeds) was 105% and the “Ratio to non-treated group” value (0.25 mg/g of seeds) was 119%. For the same compound, the “Ratio to non-treated group” value (0.3 mg/g of seeds) was 121%, the “Fresh weight of the above-ground part” value (amount of chemical 0.01 mg/g of seeds) was 0.73 g/5 seedlings and the “Fresh weight of the above-ground part” value (amount of chemical 0.1 mg/g of seeds) was 0.73 g/5 seedlings. The “Fresh weight of the above-ground part” value (amount of chemical 0.25 mg/g of seeds) was 0.83 g/5 seedlings and the “Fresh weight of the above-ground part” value (amount of chemical 0.3 mg/g of seeds) was 0.84 g/5 seedlings.
